Data published in ChEMBL document CHEMBL5236588 (J Med Chem, 2022).
Residues, ends and D or L forms follow the SMILES beside them.

Key:
[1] = Inhibition of human FXIIa
[2] = Stability of compound in human serum at 50 uM incubated for 24 hrs by reversed phase HPLC analysis; type: ADME, cell-free
[3] = Inhibition of FXIIa (unknown origin) using Ac-QRFR-pNA as substrate measured at 30 sec interval by microplate reader assay; parameters: species or system Homo sapiens
[4] = Inhibition of human FXIa using Boc-Glu(OBzl)-AR-MCA as substrate
[5] = Inhibition of human FXa using Z-Pyr-GR-MCA as substrate
Plasma kallikrein = Plasma kallikrein (Homo sapiens, UniProt P03952); test: Inhibition of human plasma kallikrein using Z-FR-MCA as substrate; type: cell-free
[6] = biological target: T1, Suppressor of tumorigenicity 14 protein (Homo sapiens, UniProt Q9Y5Y6); test: Inhibition of recombinant human matriptase using Boc-QAR-MCA as substrate
T1 sequence (Q9Y5Y6 whole entry): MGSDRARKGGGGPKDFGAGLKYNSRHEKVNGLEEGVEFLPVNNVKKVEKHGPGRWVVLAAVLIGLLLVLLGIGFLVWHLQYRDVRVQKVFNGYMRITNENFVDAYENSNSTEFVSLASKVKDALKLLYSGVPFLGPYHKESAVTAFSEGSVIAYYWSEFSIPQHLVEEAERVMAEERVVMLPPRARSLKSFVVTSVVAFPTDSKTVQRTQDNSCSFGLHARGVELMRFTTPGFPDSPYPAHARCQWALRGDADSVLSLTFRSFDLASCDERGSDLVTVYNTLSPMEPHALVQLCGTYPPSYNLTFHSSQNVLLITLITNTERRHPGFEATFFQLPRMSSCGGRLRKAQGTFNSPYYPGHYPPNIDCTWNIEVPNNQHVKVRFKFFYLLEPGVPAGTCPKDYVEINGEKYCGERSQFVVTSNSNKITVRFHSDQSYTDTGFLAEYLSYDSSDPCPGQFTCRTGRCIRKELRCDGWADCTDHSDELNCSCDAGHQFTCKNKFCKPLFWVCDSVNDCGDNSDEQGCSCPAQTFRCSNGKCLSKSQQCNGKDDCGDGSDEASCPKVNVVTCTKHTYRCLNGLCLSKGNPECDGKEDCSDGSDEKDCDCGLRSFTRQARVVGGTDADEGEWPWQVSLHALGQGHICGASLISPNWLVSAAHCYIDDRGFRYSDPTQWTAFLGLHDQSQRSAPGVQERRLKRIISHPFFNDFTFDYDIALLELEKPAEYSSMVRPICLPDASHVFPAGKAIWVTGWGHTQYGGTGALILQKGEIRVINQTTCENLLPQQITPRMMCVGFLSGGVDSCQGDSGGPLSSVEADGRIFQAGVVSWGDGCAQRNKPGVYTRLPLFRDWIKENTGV

Plasminogen = Plasminogen (Homo sapiens, UniProt P00747); test: Inhibition of human plasmin using Ac-RM(O2)YR-pNA as substrate
[7] = Inhibition of human cationic trypsin using Boc-VPR-MCA as susbtrate
[8] = Stability of compound in human serum at 50 uM incubated for 8 hrs by reversed phase HPLC analysis; type: ADME, cell-free; details: read-out: Stability
[9] = Inhibition of human beta-FIXa using Boc-QGR-MCA as substrate
Homo sapiens = species on record: Homo sapiens; test: Anticoagulant activity in human plasma assessed as prolongation of activated partial thromboplastin time by measuring concentration required to double aPTT; type: functional

Chain of Plasminogen (P00747 97-580 limits assumed): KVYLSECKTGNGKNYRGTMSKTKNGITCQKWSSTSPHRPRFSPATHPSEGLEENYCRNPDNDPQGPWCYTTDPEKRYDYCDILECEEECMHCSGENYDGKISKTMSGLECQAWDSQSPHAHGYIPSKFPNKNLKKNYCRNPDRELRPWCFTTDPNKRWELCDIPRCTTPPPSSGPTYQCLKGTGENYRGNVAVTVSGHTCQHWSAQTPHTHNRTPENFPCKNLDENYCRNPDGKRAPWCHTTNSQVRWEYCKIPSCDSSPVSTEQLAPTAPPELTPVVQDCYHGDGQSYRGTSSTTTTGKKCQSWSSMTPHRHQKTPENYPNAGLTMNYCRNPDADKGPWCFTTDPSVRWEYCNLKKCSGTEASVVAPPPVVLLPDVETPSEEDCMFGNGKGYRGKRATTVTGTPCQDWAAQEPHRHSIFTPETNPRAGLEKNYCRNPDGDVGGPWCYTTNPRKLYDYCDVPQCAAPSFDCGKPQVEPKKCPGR
Chain of Plasminogen (P00747 581-810 limits assumed): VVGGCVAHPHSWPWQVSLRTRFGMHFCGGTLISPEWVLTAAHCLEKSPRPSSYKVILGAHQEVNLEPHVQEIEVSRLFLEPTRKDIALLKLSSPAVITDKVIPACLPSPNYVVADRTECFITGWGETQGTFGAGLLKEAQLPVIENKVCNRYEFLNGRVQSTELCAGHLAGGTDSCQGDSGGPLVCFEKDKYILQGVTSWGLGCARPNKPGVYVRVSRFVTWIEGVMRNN
Chain of Plasma kallikrein (P03952 20-390 limits assumed): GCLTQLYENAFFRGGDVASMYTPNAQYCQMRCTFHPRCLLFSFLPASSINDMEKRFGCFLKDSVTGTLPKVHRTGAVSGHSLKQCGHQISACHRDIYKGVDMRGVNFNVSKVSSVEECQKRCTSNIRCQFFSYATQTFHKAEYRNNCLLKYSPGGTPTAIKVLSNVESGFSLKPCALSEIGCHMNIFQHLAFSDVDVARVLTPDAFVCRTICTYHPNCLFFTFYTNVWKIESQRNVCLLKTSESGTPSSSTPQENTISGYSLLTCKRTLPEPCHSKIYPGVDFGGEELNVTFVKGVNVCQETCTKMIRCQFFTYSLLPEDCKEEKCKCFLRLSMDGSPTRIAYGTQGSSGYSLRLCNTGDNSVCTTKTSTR
Chain of Plasma kallikrein (P03952 391-638 limits assumed): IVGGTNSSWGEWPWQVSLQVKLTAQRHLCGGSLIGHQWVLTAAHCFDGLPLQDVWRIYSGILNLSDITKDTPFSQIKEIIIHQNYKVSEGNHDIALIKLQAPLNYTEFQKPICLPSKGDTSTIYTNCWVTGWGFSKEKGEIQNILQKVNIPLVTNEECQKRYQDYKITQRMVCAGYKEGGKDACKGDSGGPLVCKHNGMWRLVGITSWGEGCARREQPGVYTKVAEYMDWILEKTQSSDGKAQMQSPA

SMILES	Stability [2]	Ki [3] [nM]	IC50 [4] [nM]	IC50 [5] [nM]	IC50 (Plasma kallikrein) [nM]	Ki [6] [nM]	IC50 [9] [nM]	other results
CC(C)C[C@@H]1NC(=O)[C@H](CCC(N)=O)NC(=O)[C@H](Cc2c[nH]cn2)NC(=O)[C@@H]2CSCCC(=O)N3CN(CN(C3)C(=O)CCSC[C@H](NC(=O)[C@@H](CO)NC(=O)[C@H](N)CCCNC(=N)N)C(=O)N[C@@H](Cc3ccc(F)cc3)C(=O)N[C@@H](CCCNC(=N)N)C(=O)N[C@@H](CC(C)C)C(=O)N3CCC[C@H]3C(=O)N2)C(=O)CCSC[C@@H](C(=O)O)NC(=O)C[C@H](CCCNC(=N)N)NC1=O	–	–	–	–	–	–	–	Ki [1]: 0.37 nM
CC[C@H](C)[C@@H]1NC(=O)[C@@H]2CSSC[C@@H]3NC(=O)[C@H](CCC(N)=O)NC(=O)CNC(=O)CNC(=O)[C@H](CC(=O)O)NC(=O)[C@H](CO)NC(=O)CNC(=O)[C@H](CO)NC(=O)CNC(=O)[C@@H]4CSSC[C@H](NC(=O)[C@H](CC(=O)O)NC(=O)[C@H](CO)NC(=O)[C@H](CC(=O)O)NC(=O)[C@H](CCCNC(=N)N)NC(=O)[C@H](CCCNC(=N)N)NC(=O)[C@H](CSSC[C@H](NC1=O)C(=O)N[C@@H](CCCNC(=N)N)C(=O)NCC(=O)N[C@@H](CC(N)=O)C(=O)NCC(=O)N[C@@H](Cc1ccc(O)cc1)C(=O)N4)NC(=O)[C@H](CCCCN)NC(=O)[C@H](CCCCN)NC(=O)[C@H](CC(C)C)NC(=O)[C@H]([C@@H](C)CC)NC(=O)[C@H](CCCNC(=N)N)NC(=O)[C@H](Cc1ccccc1)NC3=O)C(=O)N1CCC[C@H]1C(=O)NCC(=O)N[C@@H](C)C(=O)N2 (HELM PEPTIDE1{A.C.I.C.R.G.N.G.Y.C.G.S.G.S.D.G.G.Q.C.F.R.I.L.K.K.C.R.R.D.S.D.C.P.G}$PEPTIDE1,PEPTIDE1,2:R3-19:R3|PEPTIDE1,PEPTIDE1,4:R3-26:R3|PEPTIDE1,PEPTIDE1,10:R3-32:R3|PEPTIDE1,PEPTIDE1,1:R1-34:R2$$$V2.0)	Stable	193	–	–	–	–	–	–
CC[C@H](C)[C@@H]1NC(=O)[C@H](CCCNC(=N)N)NC(=O)[C@H](Cc2ccccc2)NC(=O)[C@@H](NC(=O)[C@H](CCCNC(=N)N)NC(=O)CNC(=O)CN)CSSC[C@@H]2NC(=O)[C@H](C)NC(=O)CNC(=O)[C@@H]3CCCN3C(=O)[C@@H]3CSSC[C@@H](C(=O)NCC(=O)N[C@@H](CO)C(=O)O)NC(=O)[C@H](Cc4ccc(O)cc4)NC(=O)CNC(=O)[C@H](CC(N)=O)NC(=O)CNC(=O)[C@H](CCCNC(=N)N)NC(=O)[C@H](CSSC[C@H](NC(=O)[C@H](CCCCN)NC(=O)[C@H](CCCCN)NC(=O)CNC1=O)C(=O)N[C@@H](CCCNC(=N)N)C(=O)N[C@@H](CCCNC(=N)N)C(=O)N[C@@H](CC(=O)O)C(=O)N[C@@H](CO)C(=O)N[C@@H](CC(=O)O)C(=O)N3)NC(=O)[C@H]([C@@H](C)CC)NC2=O (HELM PEPTIDE1{G.G.R.C.F.R.I.G.K.K.C.R.R.D.S.D.C.P.G.A.C.I.C.R.G.N.G.Y.C.G.S}$PEPTIDE1,PEPTIDE1,4:R3-21:R3|PEPTIDE1,PEPTIDE1,11:R3-23:R3|PEPTIDE1,PEPTIDE1,17:R3-29:R3$$$V2.0) [listing 1 of 2 here]	Stable	2	> 5000	> 5000	> 5000	1430	> 5000	IC50 (Plasminogen): > 5000 nM; IC50 [7]: > 5000 nM; remaining at 8 h, 50 µM [8]: 100%
CC[C@H](C)[C@@H]1NC(=O)[C@H](CCCNC(=N)N)NC(=O)[C@H](Cc2ccccc2)NC(=O)[C@@H](NC(=O)[C@H](CCCNC(=N)N)NC(=O)CNC(=O)CN)CSSC[C@@H]2NC(=O)[C@H](C)NC(=O)CNC(=O)[C@@H]3CCCN3C(=O)[C@@H]3CSSC[C@@H](C(=O)NCC(=O)N[C@@H](CO)C(=O)O)NC(=O)[C@H](Cc4ccc(O)cc4)NC(=O)CNC(=O)[C@H](CC(N)=O)NC(=O)CNC(=O)[C@H](CCCNC(=N)N)NC(=O)[C@H](CSSC[C@H](NC(=O)[C@H](CCCCN)NC(=O)[C@H](CCCCN)NC(=O)CNC1=O)C(=O)N[C@@H](CCCNC(=N)N)C(=O)N[C@@H](CCCNC(=N)N)C(=O)N[C@@H](CC(=O)O)C(=O)N[C@@H](CO)C(=O)N[C@@H](CC(=O)O)C(=O)N3)NC(=O)[C@H]([C@@H](C)CC)NC2=O (HELM PEPTIDE1{G.G.R.C.F.R.I.G.K.K.C.R.R.D.S.D.C.P.G.A.C.I.C.R.G.N.G.Y.C.G.S}$PEPTIDE1,PEPTIDE1,4:R3-21:R3|PEPTIDE1,PEPTIDE1,11:R3-23:R3|PEPTIDE1,PEPTIDE1,17:R3-29:R3$$$V2.0) [listing 2 of 2 here]	–	–	–	–	–	–	–	Activity (Homo sapiens): 2.5 µM
CC[C@H](C)[C@@H]1NC(=O)[C@@H]2CSSC[C@H](NC(=O)[C@H](CCCNC(=N)N)NC(=O)CNC(=O)CN)C(=O)N[C@@H](Cc3ccccc3)C(=O)N[C@@H](CCCNC(=N)N)C(=O)N[C@@H]([C@@H](C)CC)C(=O)N[C@@H](CC(C)C)C(=O)N[C@@H](CCCCN)C(=O)N[C@@H](CCCCN)C(=O)N[C@H]3CSSC[C@H](NC1=O)C(=O)N[C@@H](CCCNC(=N)N)C(=O)NCC(=O)N[C@@H](CC(N)=O)C(=O)NCC(=O)N[C@@H](Cc1ccc(O)cc1)C(=O)N[C@H](C(=O)NCC(=O)N[C@@H](CO)C(=O)O)CSSC[C@H](NC(=O)[C@H](CC(=O)O)NC(=O)[C@H](CO)NC(=O)[C@H](CC(=O)O)NC(=O)[C@H](CCCNC(=N)N)NC(=O)[C@H](CCCNC(=N)N)NC3=O)C(=O)N1CCC[C@H]1C(=O)NCC(=O)N[C@@H](C)C(=O)N2 (HELM PEPTIDE1{G.G.R.C.F.R.I.L.K.K.C.R.R.D.S.D.C.P.G.A.C.I.C.R.G.N.G.Y.C.G.S}$PEPTIDE1,PEPTIDE1,4:R3-21:R3|PEPTIDE1,PEPTIDE1,11:R3-23:R3|PEPTIDE1,PEPTIDE1,17:R3-29:R3$$$V2.0)	–	3	> 5000	> 5000	> 5000	30	> 5000	Ki (Plasminogen): 86 nM; Ki [7]: 275 nM
